Assay results as given in patent publication US20220348590A1, “CYCLOOXYGENASE-2 INHIBITORS AND USES THEREOF” (The Board Institute, Inc., priority 2019, published 2022).
Like-named read-outs stand apart in the source and are kept apart here.

Legend:
[1] = target: T1, human recombinant COX2 (hCOX2) (UniProt P35354); test: LCMS-based COX2 enzymatic inhibition assay (PGE2 quantification); assay type: biochemical; design: COX2 2 minutes pge2/pge2d4 area ratio Avg; other: 2 minutes; readout pge2/pge2d4 area ratio; average; COX2 2 minutes pge2/pge2d4 area ratio Avg; LLE; average LLE; COX2 2 minutes pge2 area (counts) Avg; readout pge2 area (counts); other: 2 min; "ovine COX2 (oCOX2), human recombinant COX2 (hCOX2)"; settings: for IC50: average
T1 sequence (P35354 1-604): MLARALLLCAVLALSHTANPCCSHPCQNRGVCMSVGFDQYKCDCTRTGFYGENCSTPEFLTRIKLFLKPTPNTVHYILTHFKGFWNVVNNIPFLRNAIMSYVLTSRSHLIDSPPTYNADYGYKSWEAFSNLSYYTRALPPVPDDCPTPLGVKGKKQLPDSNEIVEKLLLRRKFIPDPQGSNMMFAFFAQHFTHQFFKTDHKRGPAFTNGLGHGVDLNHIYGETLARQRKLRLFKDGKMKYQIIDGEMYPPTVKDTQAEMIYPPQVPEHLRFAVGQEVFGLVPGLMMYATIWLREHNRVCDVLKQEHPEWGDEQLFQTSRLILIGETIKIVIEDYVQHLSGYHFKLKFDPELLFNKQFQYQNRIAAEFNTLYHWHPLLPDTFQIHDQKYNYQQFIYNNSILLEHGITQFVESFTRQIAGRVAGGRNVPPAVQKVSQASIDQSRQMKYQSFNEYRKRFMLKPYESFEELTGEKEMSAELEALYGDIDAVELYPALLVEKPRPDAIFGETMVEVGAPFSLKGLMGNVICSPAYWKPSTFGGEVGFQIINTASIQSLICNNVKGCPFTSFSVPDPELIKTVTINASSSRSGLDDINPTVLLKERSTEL
Method in brief: (§1)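 Ovine COX-1 (0.1 μg) or human recombinant COX2 (0.2 μg) in 100 mM Tris.HCl pH 8.0 with hematin and epinephrine, preincubated with inhibitor 10 min at 37 °C. Reaction with 5 μM arachidonic acid stopped after 2 min with HCl; PGE2 quantified by LC-MS-MS. IC50 from 12 concentrations in triplicate.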

[2] = Human Microsome Stability; assay type: in vitro ADME; settings: human microsomes
[3] = Rat Plasma Protein Stability (% Remaining); assay type: in vitro ADME; settings: average
[4] = rat plasma protein binding (PPB) assay; assay type: in vitro ADME; settings: average, read-out: Rat Plasma Protein Binding % Bound Avg (converted)
Method: We have adapted a previously reported cyclooxygenase enzymatic assay utilizing LCMS quantification of PGE2 as the product of COX-1 and COX2 catalyzed conversion of arachidonic acid to evaluate the binding properties of newly synthesized ligands [Cao, 2011]. These optimized and miniaturized (384-well plates) LCMS-based COX-1 and COX2 enzymatic assays enabled us to quickly evaluate newly synthesized ligands for COX2 binding affinity and selectivity vs COX-1. Using a shorter ligand-enzyme incubation time in the LCMS assay (2 minutes vs 10 minutes) also permitted us to prioritize ligands with faster binding kinetics. Considering the relatively slow on-rate kinetics of known coxibs, due to their 3-step binding mechanism [Marnett, 2009], we believe that optimizing this critical parameter will be key to the successful development of a COX2 PET tracer. Using these enzymatic assays, we have evaluated>200 newly synthesized ligands against COX2 and >20 ligands against COX-1. Another critical property necessary for a good PET radiotracer is to have low non-specific binding (NSB) to increase the free fraction and maximize the signal to noise ratio. This property can be evaluated using in-vitro protein binding assays, and we have now evaluated>50 newly synthesized ligands in mouse, rat and human plasma protein binding (PPB) assays as well as >15 ligands in a mouse brain protein binding (BPB) assay.

ovine COX-1 (oCOX-1) = target: T2, ovine COX-1 (oCOX-1) (Ovis aries, UniProt P05979); test: LCMS-based COX-1 enzymatic inhibition assay (PGE2 quantification); assay type: biochemical
T2 construct: purchased Cayman Chemicals (Ann Arbor, Mich.)
T2 sequence (P05979 25-600): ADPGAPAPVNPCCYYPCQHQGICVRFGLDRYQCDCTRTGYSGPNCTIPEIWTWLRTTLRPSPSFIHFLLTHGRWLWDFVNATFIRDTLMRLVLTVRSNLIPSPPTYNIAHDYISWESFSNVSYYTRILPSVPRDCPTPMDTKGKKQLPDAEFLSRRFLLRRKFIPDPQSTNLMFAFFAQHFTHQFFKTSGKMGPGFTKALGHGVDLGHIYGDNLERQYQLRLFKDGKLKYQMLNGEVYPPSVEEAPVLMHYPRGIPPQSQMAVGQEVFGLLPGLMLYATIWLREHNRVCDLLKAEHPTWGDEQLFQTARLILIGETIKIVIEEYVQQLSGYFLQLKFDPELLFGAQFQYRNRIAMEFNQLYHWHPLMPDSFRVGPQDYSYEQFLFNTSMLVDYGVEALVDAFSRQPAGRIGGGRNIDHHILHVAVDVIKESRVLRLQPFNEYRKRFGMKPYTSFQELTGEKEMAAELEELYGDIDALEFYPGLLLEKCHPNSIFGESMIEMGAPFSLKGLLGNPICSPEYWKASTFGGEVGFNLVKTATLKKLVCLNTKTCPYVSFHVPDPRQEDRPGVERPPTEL
Method in brief: as §1

[5] = 2 minutes, readout pge2/pge2d4 area ratio, average LLE
[6] = 2 minutes, readout pge2/pge2d4 area ratio, read-out: COX2 2 minutes pge2/pge2d4 area ratio Avg. IC50
[7] = 2 minutes, readout pge2 area (counts), average LLE
[8] = 2 minutes, readout pge2 area (counts), read-out: COX2 2 minutes pge2 area (counts) Avg. IC50
[9] = 10 minutes, readout pge2/pge2d4 area ratio, average LLE
[10] = 10 minutes, readout pge2 area (counts), average LLE
[11] = 10 minutes, pge2/pge2d4 area ratio, head of this section not shown, inferred
[12] = 10 minutes, pge2 area (counts), head of this section not shown, inferred
[13] = 10 minutes, readout pge2/pge2d4 area ratio, average, read-out: COX1 10 minutes pge2/pge2d4 area ratio Avg. IC50
[14] = 10 minutes, pge2 area (counts), head of this section not shown, inferred, read-out: COX1 10 minutes pge2 area (counts) Avg. IC50

Row | SMILES | COX2 2 minutes pge2/pge2d4 area ratio Avg. LLE [1, 5] | IC50 [1, 6] | COX2 2 minutes pge2 area (counts) Avg. LLE [1, 7] | IC50 [1, 8] | Human Microsome Stability % Remaining Avg [2] | Rat Plasma Protein Stability % Remaining Avg [3] | fraction unbound [4] | IC50 (ovine COX-1 (oCOX-1)) | COX1 10 minutes pge2/pge2d4 area ratio Avg. LLE (ovine COX-1 (oCOX-1); [9]) | COX1 10 minutes pge2 area (counts) Avg. LLE (ovine COX-1 (oCOX-1); [10]) | IC50 (ovine COX-1 (oCOX-1); 10 minutes, readout pge2 area (counts), average, read-out: COX1 10 minutes pge2 area (counts) Avg. IC50) | COX1 10 minutes pge2/pge2d4 area ratio Avg. LLE (ovine COX-1 (oCOX-1); [11]) | COX1 10 minutes pge2 area (counts) Avg. LLE (ovine COX-1 (oCOX-1); [12]) | IC50 (ovine COX-1 (oCOX-1); [13]) | COX2 10 minutes pge2 area (counts) Avg. LLE [1, 10] | IC50 ([1]; 10 minutes, readout pge2 area (counts), read-out: COX2 10 minutes pge2 area (counts) Avg. IC50) | IC50 (ovine COX-1 (oCOX-1); [14])
1 | CS(=O)(=O)c1ccc(-c2cccc(NCc3ccc(F)cc3)n2)cc1 [Compound 13] | 4.5476 | 0.00878 µM | 4.59 | 0.00819 µM | 62% | 101% | 0.021 |  |  |  |  |  |  |  |  |  | 
2 | Cc1cc(CNc2cccc(-c3ccc(S(C)(=O)=O)cc3)n2)co1 [Compound 27] | 4.789 | 0.0133 µM | 4.853 | 0.0109 µM | 8.8% | 99.7% | 0.037 | 52 µM | 1.134 | 1.134 |  |  |  |  |  |  | 
3 | CS(=O)(=O)c1ccc(-c2cccc(OCc3ccco3)n2)cc1 [Compound 28] | 4.722 | 0.0136 µM | 4.78 | 0.0126 µM | 15% | 102.8% | 0.025 | 52 µM | 1.104 | 1.104 |  |  |  |  |  |  | 
4 | CS(=O)(=O)c1ccc(-c2cccc(/C=C\c3cccs3)n2)cc1 [Compound 41] | 3.735 | 0.019 µM | 3.716 | 0.0217 µM |  | 100% | 0.021 | 52 µM | 0.234 | 0.2543 | 49.6 µM |  |  |  |  |  | 
5 | CS(=O)(=O)c1ccc(-c2cccc(NCc3cccs3)n2)cn1 [Compound 59] | 5.112 | 0.032 µM | 5.062 | 0.0426 µM | 28% |  |  | 52 µM |  |  |  | 1.754 | 1.754 |  |  |  | 
6 | Cc1ccoc1CNc1cccc(-c2ccc(S(C)(=O)=O)cc2)n1 [Compound 91] | 4.034 | 0.0686 µM | 4.0886 | 0.0653 µM |  |  |  |  |  |  |  | 1.267 | 1.134 | 38.3 µM |  |  | 
7 | CS(=O)(=O)c1ccc(-c2cncc(NCc3ccccc3)n2)cc1 [Compound 93] | 5.017 | 0.069 µM | 5.139 | 0.0558 µM |  |  |  |  |  |  |  |  | 2.104 |  | 5.9924 | 0.00685 µM | 
8 | CS(=O)(=O)c1ccc(-c2cnc3cnn(Cc4cccs4)c3n2)cc1 [Compound 94] | 4.786 | 0.071 µM | 4.818 | 0.0699 µM |  |  |  |  |  |  |  | 2.552 | 2.532 | 10.2 µM |  |  | 10.7 µM
9 | CS(=O)(=O)c1ccc(-c2cccc(NCc3cncs3)n2)cc1 [Compound 99] | 4.286 | 0.0779 µM | 4.248 | 0.0869 µM |  |  |  |  |  |  |  | 1.498 |  | 45.9 µM |  |  | 
10 | C[S+]([O-])c1ccc(-c2cncc(NCc3cccs3)n2)cc1 (stereo not drawn) [Compound 129] | 5.405 | 0.152 µM | 5.443 | 0.141 µM |  |  |  |  |  |  |  |  | 2.83 |  |  |  | 50.2 µM
11 | CS(=O)(=O)c1ccc(-c2nc(NCc3ccco3)ccc2F)cc1 [Compound 218] | 3.092 | 1.61 µM | 3.132 | 1.72 µM | 15% |  |  |  |  |  |  |  |  |  |  |  | 
12 | CSc1ccc(-c2cncc(OCc3cccs3)n2)cc1 [Compound 253] | 1.5751 | 3.76 µM | 1.45 | 4.84 µM |  |  |  |  |  |  |  |  | 0.8637 |  |  |  | 19.3 µM
